Test: xn = mol fraction of the nth substance listed, in the solute-free solvent

Nc1cccc(S(=O)(=O)c2cccc(N)c2)c1 + CO + O
solubility (g/100 g solution)
Conditions	283.15 K	288.15 K	293.15 K	298.15 K	303.15 K	308.15 K	313.15 K	318.15 K	323.15 K	328.15 K
x2 = 0.05881	0.0853	0.113	0.149	0.202	0.26	0.333	0.429	0.552	0.675	0.867
x2 = 0.1233	0.182	0.244	0.31	0.4	0.526	0.654	0.83	1.04	1.28	1.59
x2 = 0.1942	0.315	0.413	0.533	0.675	0.849	1.08	1.34	1.67	2.05	2.48
x2 = 0.2727	0.512	0.66	0.84	1.04	1.32	1.63	2	2.41	2.93	3.56
x2 = 0.3599	0.734	0.92	1.16	1.44	1.77	2.18	2.64	3.19	3.81	4.63
x2 = 0.4576	0.977	1.22	1.53	1.89	2.32	2.81	3.41	4.06	4.85	5.78
x2 = 0.5675	1.28	1.57	1.95	2.42	2.93	3.58	4.23	5.08	5.95	7.08
x2 = 0.6923	1.59	1.95	2.37	2.95	3.56	4.28	5.14	6.1	7.13	8.38
x2 = 0.835	1.93	2.32	2.83	3.42	4.15	4.97	5.91	6.97	8.2	9.54

Cc1[nH]c(=O)c(C#N)cc1-c1ccncc1 + OCCO + O
solubility (g/100 g solution)
Conditions	278.15 K	283.15 K	288.15 K	293.15 K	298.15 K	303.15 K	308.15 K	313.15 K	318.15 K	323.15 K
x2 = 0.03125	0.000882	0.00106	0.00125	0.00147	0.00171	0.00196	0.00222	0.00252	0.00285	0.00321
x2 = 0.06767	0.00131	0.00157	0.00185	0.00216	0.00252	0.00288	0.00326	0.0037	0.00417	0.0047
x2 = 0.1107	0.00189	0.00227	0.00266	0.00311	0.00362	0.00413	0.00467	0.00529	0.00595	0.0067
x2 = 0.1622	0.00264	0.00316	0.0037	0.00432	0.00502	0.00573	0.00647	0.00732	0.00821	0.00925
x2 = 0.225	0.00351	0.0042	0.00493	0.00575	0.00666	0.0076	0.00858	0.00971	0.0109	0.0123
x2 = 0.3034	0.00434	0.00527	0.00628	0.00732	0.00847	0.00967	0.0109	0.0123	0.0138	0.0155
x2 = 0.4038	0.00509	0.00622	0.00737	0.00855	0.00992	0.0116	0.0131	0.0148	0.0165	0.0186
x2 = 0.5373	0.00576	0.00696	0.00818	0.00966	0.0113	0.0129	0.0147	0.0167	0.0186	0.0211
x2 = 0.7232	0.00605	0.0074	0.00868	0.0102	0.0118	0.0135	0.0153	0.0174	0.0195	0.0223

Source: the CheMixHub drug solubility set
